According to patent US20190382827A1, “USE OF MICROBIAL METABOLITES FOR TREATING DISEASES” (Yeda Research and Development Co. Ltd., priority 2015, published 2019):
Entries after “also recorded” stand apart in the source; their conditions may differ.

Key:
[1] = test system: colon explants; format: cell-based, mouse
Protocol: (F) FACS quantification of propidium iodide positive cells obtained from colon explants incubated for 10 hrs with PBS or taurine.
(F) FACS quantification of propidium iodide positive cells obtained from colon explants incubated for 10 hrs with either PBS, spermine or histamine.

[2] = test system: DSS colitis; assay: DSS colitis; format: in vivo, mouse
Protocol: For IL-18 rescue experiments, recombinant IL-18 (MBL, Cat#B004-2) was injected intraperitoneally at a concentration of 1 μg per mouse for 5 days, and not injected for 2 days prior to DSS treatment. IL-18 injection to Swiss Webster germ-free mice and Nlrp6^−/− mice was performed twice a day for 3 days, while the mice were kept sterile using a cage-autonomous system (Hecht et al., 2014).
Mice were treated with 1.5% (w/v) DSS (M.W.=36,000-50,000 Da; MP Biomedicals) in their drinking water for 7 days followed by regular access to water. The animals were weighed daily and monitored for signs of distress as well as rectal bleeding.
For DSS rescue experiments, mice were receiving taurine in the drinking water prior to DSS treatment in a concentration of 100 mg/ml for 14 days.
Colonoscopy was performed using a high-resolution mouse video endoscopic system (Carl Storz, Tuttlingen, Germany). The severity of colitis was blindly scored using MEICS (Murine Endoscopic Index of Colitis Severity), which is based on five parameters: granularity of mucosal surface; vascular pattern; translucency of the colon mucosa; visible fibrin; and stool consistency (Becker et al., 2006).
On the day of the assay, 4 kDa fluorescein isothiocyanate (FITC)-dextran was dissolved in phosphate buffered saline (PBS) to a concentration of 80 mg ml^−1. Mice were fasted for 4 hours prior to gavage with 150 μl dextran. Mice were anesthetized 3 hours following gavage and blood was collected, centrifuged at 1,000×g for 12 min at 4° C. Serum was collected and fluorescence was quantified at an excitation wavelength of 485 nm and 535 nm emission wavelength.
DNA was extracted from liver samples (using MoBio PowerSoil kit). DNA concentration was calculated using a standard curve of known DNA concentrations from E. coli K12. 16S qPCR using primers identifying different regions of the V6 16S gene was performed using Kappa SYBR fast mix.
Absolute number of bacteria in the samples was then approximated as DNA amount in a sample/DNA molecule mass of bacteria.

[3] = WT mice, DSS colitis, taurine in drinking water
[4] = WT mice, taurine in drinking water for two weeks, then DSS colitis

| SMILES | cell death [1] | exacerbation of DSS colitis ([2]; WT mice concomitantly treated with antibiotics) | DSS colitis ([2]; WT mice, histamine treatment) | beneficial effects on DSS colitis ([2]; GF WT mice) | beneficial effects on DSS colitis ([2]; WT mice treated with broad-spectrum antibiotics) | hepatic bacterial load [2, 3] | systemic FITC-dextran influx [2, 3] | epithelial tight junction integrity ([2]; WT mice, DSS colitis, taurine in drinking water, ZO-1 staining) | beneficial effects on DSS colitis ([2]; WT mice, taurine administration stopped before induction of DSS colitis) | colitis severity [2, 4] | weight loss [2, 4] | survival ([2]; WT mice, taurine in drinking water, DSS) | beneficial effects on DSS colitis ([2]; mice lacking either ASC or NLRP6) |
| --- | --- | --- | --- | --- | --- | --- | --- | --- | --- | --- | --- | --- | --- |
| NCCc1c[nH]cn1 [histamine] | no change | prevented | exacerbated |  |  |  |  |  |  |  |  |  |  |
| NCCCNCCCCNCCCN [spermine] | no change |  |  |  |  |  |  |  |  |  |  |  |  |
| NCCS(=O)(=O)O [taurine] |  |  |  | failed to have beneficial effects | failed to have beneficial effects | decreased | reduced | sustained | beneficial effects were also observed | ameliorated; also recorded: reduced | improved | enhanced | failed to have beneficial effects |
